Data reported in PubChem BioAssay AID1918995 (Molecular Pharmacology Branch, DTP, NCI, 2023).

Tested on: 324938-238-R-J1-PDC complex spheroid growth, % test/control
Experiment: Anticancer human tumor 324938-238-R-J1-PDC patient-derived bladder carcinoma cell line growth inhibition [AhR]
Conditions: for IC50: curve of first compound; for viability, T/C: stronger effect = lower value; active means viability on the fitted dose curve at most 10% of control; inactive means the rest
In short: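 Spheroids combined tumor cells with HUVEC endothelial cells and human MSCs as stroma. AhR antagonists were paired with standard or investigational drugs, each dosed in half-log steps down from near clinical Cmax, or from 10 microM where Cmax was unknown.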

[1] = second compound 0.1 µM, first compound 0.0316 µM
[2] = second compound 0.1 µM, first compound 0.1 µM
[3] = second compound 0.1 µM, first compound 0.316 µM
[4] = second compound 0.1 µM, first compound 1 µM
[5] = second compound 0.1 µM, first compound 3.16 µM
[6] = second compound 0.1 µM, first compound 10 µM
[7] = second compound 0.316 µM, first compound 0.0316 µM
[8] = second compound 0.316 µM, first compound 0.1 µM
[9] = second compound 0.316 µM, first compound 0.316 µM
[10] = second compound 0.316 µM, first compound 1 µM
[11] = second compound 0.316 µM, first compound 3.16 µM
[12] = second compound 0.316 µM, first compound 10 µM
[13] = second compound 1 µM, first compound 0.0316 µM
[14] = second compound 1 µM, first compound 0.1 µM
[15] = second compound 1 µM, first compound 0.316 µM
[16] = second compound 1 µM, first compound 1 µM
[17] = second compound 1 µM, first compound 3.16 µM
[18] = second compound 1 µM, first compound 10 µM
[19] = second compound 3.16 µM, first compound 0.0316 µM
[20] = second compound 3.16 µM, first compound 0.1 µM
[21] = second compound 3.16 µM, first compound 0.316 µM
[22] = second compound 3.16 µM, first compound 1 µM
[23] = second compound 3.16 µM, first compound 3.16 µM
[24] = second compound 3.16 µM, first compound 10 µM
[25] = second compound 10 µM, first compound 0.0316 µM
[26] = second compound 10 µM, first compound 0.1 µM
[27] = second compound 10 µM, first compound 0.316 µM
[28] = second compound 10 µM, first compound 1 µM
[29] = second compound 10 µM, first compound 3.16 µM
[30] = second compound 10 µM, first compound 10 µM
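Further: spheroids exposed to agents for seven days before viability read.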

COc1cc(C2c3cc4c(cc3C(OC3OC5COC(C)OC5C(O)C3O)C3COC(=O)C23)OCO4)cc(OC)c1O (stereo not given) + Cc1ccccc1N=Nc1ccc(NC(=O)c2ccnn2C)c(C)c1
303 nM: IC50 (second compound 0.316 µM)
249 nM: IC50 (second compound 3.16 µM)
309 nM: IC50 (second compound 1 µM)
391 nM: IC50 (second compound 0.1 µM)
inactive: viability, T/C [1] 89.2% | viability, T/C [2] 79.3% | viability, T/C [3] 52.3% | viability, T/C [4] 33.4% | viability, T/C [5] 28% | viability, T/C [6] 19.5% | viability, T/C [7] 78.4% | viability, T/C [8] 87.8% | viability, T/C [9] 48.7% | viability, T/C [10] 33% | viability, T/C [11] 27% | viability, T/C [12] 16.9% | viability, T/C [13] 79.2% | viability, T/C [14] 75.5% | viability, T/C [15] 47.2% | viability, T/C [16] 29.6% | viability, T/C [17] 23.7% | viability, T/C [18] 16.4% | viability, T/C [19] 68.2% | viability, T/C [20] 61.6% | viability, T/C [21] 46.4% | viability, T/C [22] 33.3% | viability, T/C [23] 28% | viability, T/C [24] 16% | viability, T/C [25] 70.5% | viability, T/C [26] 65.5% | viability, T/C [27] 43.3% | viability, T/C [28] 38.7% | viability, T/C [29] 31.8% | viability, T/C [30] 18.5%
287 nM: IC50 (second compound 10 µM)

CC1(C)CCC(CN2CCN(c3ccc(C(=O)NS(=O)(=O)c4ccc(NCC5CCOCC5)c([N+](=O)[O-])c4)c(Oc4cnc5[nH]ccc5c4)c3)CC2)=C(c2ccc(Cl)cc2)C1 + Cc1cncc(-c2nc(NCCc3c[nH]c4ccccc34)c3ncn(C(C)C)c3n2)c1
> 10000 nM: IC50 (second compound 0.1 µM) | IC50 (second compound 0.316 µM) | IC50 (second compound 1 µM) | IC50 (second compound 3.16 µM)
active: viability, T/C [26] 8.66% | viability, T/C [27] 11.9% | viability, T/C [28] 7.88% | viability, T/C [29] 9.07% | viability, T/C [30] 12.5%
< 31.6 nM: IC50 (second compound 10 µM)
inactive: viability, T/C [1] 108% | viability, T/C [2] 80.3% | viability, T/C [3] 109% | viability, T/C [4] 93% | viability, T/C [5] 109% | viability, T/C [6] 117% | viability, T/C [7] 94.2% | viability, T/C [8] 96.9% | viability, T/C [9] 136% | viability, T/C [10] 87.7% | viability, T/C [11] 86.6% | viability, T/C [12] 114% | viability, T/C [13] 112% | viability, T/C [14] 123% | viability, T/C [15] 131% | viability, T/C [16] 107% | viability, T/C [17] 103% | viability, T/C [18] 130% | viability, T/C [19] 106% | viability, T/C [20] 93.5% | viability, T/C [21] 115% | viability, T/C [22] 102% | viability, T/C [23] 112% | viability, T/C [24] 106% | viability, T/C [25] 13.5%

O=C(C=Cn1cnc(-c2cc(C(F)(F)F)cc(C(F)(F)F)c2)n1)NNc1cnccn1 + Cc1cncc(-c2nc(NCCc3c[nH]c4ccccc34)c3ncn(C(C)C)c3n2)c1
inactive: viability, T/C (second compound 0.1 µM, first compound 0.00949 µM) 86.6% | viability, T/C (second compound 0.1 µM, first compound 0.03 µM) 94.1% | viability, T/C (second compound 0.1 µM, first compound 0.0949 µM) 66.5% | viability, T/C (second compound 0.1 µM, first compound 0.3 µM) 56.2% | viability, T/C (second compound 0.1 µM, first compound 0.949 µM) 53.2% | viability, T/C (second compound 0.1 µM, first compound 3 µM) 44.3% | viability, T/C (second compound 0.316 µM, first compound 0.00949 µM) 95.5% | viability, T/C (second compound 0.316 µM, first compound 0.03 µM) 90.8% | viability, T/C (second compound 0.316 µM, first compound 0.0949 µM) 110% | viability, T/C (second compound 0.316 µM, first compound 0.3 µM) 64.9% | viability, T/C (second compound 0.316 µM, first compound 0.949 µM) 47.1% | viability, T/C (second compound 0.316 µM, first compound 3 µM) 37.3% | viability, T/C (second compound 1 µM, first compound 0.00949 µM) 112% | viability, T/C (second compound 1 µM, first compound 0.03 µM) 94.7% | viability, T/C (second compound 1 µM, first compound 0.0949 µM) 80.7% | viability, T/C (second compound 1 µM, first compound 0.3 µM) 79.7% | viability, T/C (second compound 1 µM, first compound 0.949 µM) 50.4% | viability, T/C (second compound 1 µM, first compound 3 µM) 31.4% | viability, T/C (second compound 3.16 µM, first compound 0.00949 µM) 120% | viability, T/C (second compound 3.16 µM, first compound 0.03 µM) 103% | viability, T/C (second compound 3.16 µM, first compound 0.0949 µM) 93.1% | viability, T/C (second compound 3.16 µM, first compound 0.3 µM) 60.6% | viability, T/C (second compound 3.16 µM, first compound 0.949 µM) 42.3% | viability, T/C (second compound 3.16 µM, first compound 3 µM) 47.6% | viability, T/C (second compound 10 µM, first compound 0.00949 µM) 16.9% | viability, T/C (second compound 10 µM, first compound 0.03 µM) 7.37% | viability, T/C (second compound 10 µM, first compound 0.0949 µM) 15% | viability, T/C (second compound 10 µM, first compound 0.3 µM) 20.5% | viability, T/C (second compound 10 µM, first compound 0.949 µM) 22.1% | viability, T/C (second compound 10 µM, first compound 3 µM) 25.8%
740 nM: IC50 (second compound 3.16 µM)
639 nM: IC50 (second compound 0.316 µM)
1100 nM: IC50 (second compound 1 µM)
> 3000 nM: IC50 (second compound 0.1 µM)
< 9.49 nM: IC50 (second compound 10 µM)
